Measurements taken from patent US20260234188A1, “CHEMOKINE-BINDING PEPTIDES” (Oxford University Innovation Limited, priority 2022, published 2026).
Ends that are not written are not given here. Peptide text beside a SMILES is read from it.

Assays:
CCL15 = biological target: T1, CCL15 (Homo sapiens, UniProt Q16663); assay: CCL15-induced cell migration assay; assay type: cell-based; details: HD2 mutant peptides 10 μM, chemokine at EC80
T1 sequence (Q16663 22-113): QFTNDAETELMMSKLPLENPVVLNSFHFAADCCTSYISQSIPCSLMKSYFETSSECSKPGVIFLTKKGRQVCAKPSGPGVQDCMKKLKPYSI
Description: FIGS. 24 and 25. Effect of exemplar mutant HD2 peptides on chemotaxis. Box-whisker plots showing the effect of the exemplar mutant HD2 peptides on cell migration induced by indicated human chemokines. All experiments were performed as at least three technical and between one to three biological replicates, and individual data points are indicated. […] Chemokine and cell type names are indicated. HD2SCR is a scrambled version of HD2 used as negative control. All peptides were at 10 μM final concentration and chemokines at EC80 doses. Statistically significant differences (compared to control, coloured blue), using Dunnett's test with correction for multiple comparisons, are indicated by asterisks: ****=P≤0.0001, ***=P≤0.001, **=P≤0.01, *=P≤0.05.
The J:CXCR1 cell line was generated by transfecting Jurkat cells by electroporation with PvuI-linearized plasmid D1398 and selecting with blasticidin (Sigma-Aldrich, Cat #203350, […]). […] J:CXCR1 cells were cultured in RPMI-1640 media (Gibco), supplemented with 10% FBS and 5 mM L-Glutamine with blasticidin. For J:CXCR1 migration assays, 300,000 cells/well were added to the top chamber of a 3 μm Transwell insert (Corning) in 50 μL of migration media (RPMI-1640, 0.5% FBS, 4 mM L-Glutamine, 0.05% DMSO). […] Cell counts were determined by Attune NxT Flow Cytometer Plate Reader (ThermoFisher), based on cell size parameters FSC-H/SSC-H. Experiments were performed in 3 technical and 3 biological replicates. […] Statistical significances between control experimental groups was evaluated using Dunnett's test. […] EC80 was calculated by fitting a chemokine dose-response curve with 3 parameters (fixing the top to 100%). IC50 was calculated by fitting an inhibitor response curve with 4 parameters.
Migration assays using THP1, activated T-cell (ATC) and J:CXCR1 (Jurkat cells stably transfected with CXCR1 receptor) were performed as described previously. […] EC80 was calculated by fitting a chemokine dose-response curve with 3 parameters (fixing the top to 100%). IC50 was calculated by fitting an inhibitor response curve with 4 parameters. […]

CCL14 = biological target: T2, CCL14 (Homo sapiens, UniProt Q16627); assay: CCL14-induced cell migration assay; assay type: cell-based; details: HD2 mutant peptides 10 μM, chemokine at EC80
T2 sequence (Q16627 20-93): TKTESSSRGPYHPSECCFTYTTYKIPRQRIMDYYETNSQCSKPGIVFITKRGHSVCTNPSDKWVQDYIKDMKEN
Description: FIGS. 24 and 25. Effect of exemplar mutant HD2 peptides on chemotaxis. Box-whisker plots showing the effect of the exemplar mutant HD2 peptides on cell migration induced by indicated human chemokines. All experiments were performed as at least three technical and between one to three biological replicates, and individual data points are indicated. […] Chemokine and cell type names are indicated. HD2SCR is a scrambled version of HD2 used as negative control. All peptides were at 10 μM final concentration and chemokines at EC80 doses. […]
The J:CXCR1 cell line was generated by transfecting Jurkat cells by electroporation with PvuI-linearized plasmid D1398 and selecting with blasticidin (Sigma-Aldrich, Cat #203350, 5 g/mL). […] Cell counts were determined by Attune NxT Flow Cytometer Plate Reader (ThermoFisher), based on cell size parameters FSC-H/SSC-H. Experiments were performed in 3 technical and 3 biological replicates. […] Statistical significances between control experimental groups was evaluated using Dunnett's test. […] EC80 was calculated by fitting a chemokine dose-response curve with 3 parameters (fixing the top to 100%). IC50 was calculated by fitting an inhibitor response curve with 4 parameters. […]

CC and CXC chemokines = assay: Chemokine-induced cell migration assays, pooled over chemokines (meta-analysis); assay type: cell-based, human; details: single HD2 mutations; nine CC and six CXC chemokines
Description: FIG. 16. Effect of HD2 alanine mutations on chemotaxis. […] All experiments were performed as three technical and three biological replicates, and individual data points are indicated, and coloured by the chemokine used. Statistically significant differences (compared to control, coloured blue), using Dunnett's test with correction for multiple comparisons, are indicated by asterisks: ****=P≤0.0001, ***=P≤0.001, **=P≤0.01, *=P≤[…] observations per group (three technical and three biological replicates for each chemokine). FIG. 16B, Faceted plots of change in median normalised cell count between alanine mutant and wild-type HD2 peptide obtained in cell migration assays (Y-axis, Δmedian normalised cell count) versus alanine mutated residue (X-axis). Chemokines used for each experiment are indicated in the strip to the right of each plot. Statistically significant differences compared to parental HD2 are shown as red dots. […] Scatterplot of Δmedian normalised cell count (Y-axis, obtained in cell migration assays) versus Δlog 2 E (obtained in phage-display experiments) for peptide:chemokine pairs. Individual data points indicate peptide chemokine pairs for which both cell migration and Δlog 2 E were available. Linear regression plot with 95% confidence interval, Spearman correlation coefficient (R) and statistical significance (p) are shown.
FIG. 19. […] All experiments were performed as at least three technical and three biological replicates, and individual data points are indicated, and coloured by the chemokine used, for all chemokines studied (n=16 chemokines). Statistically significant differences (compared to control, coloured blue), using Dunnett's test with correction for multiple comparisons, are indicated by asterisks: ****=P≤0.0001, ***=P≤0.001, **=P≤0.01, *=P≤0.05.
Briefly, cell migration assays use THP1 cells (human monocyte) and primary human buffy coat white cells (consisting of neutrophil granulocytes, monocytes, and lymphocytes), and activated T-cells. THP1 cells and primary monocytes respond to CCL2, CCL3, CCL5, CCL8 and CXCL4, granulocytes to CXCL1 and CXCL8, activated T-cells to CXCL9/10/11. Assays are performed in 96-well Boyden chambers, and migrated cells counted and characterized using and ATTUNE Flow Cytometer as described. Triplicate assays are performed at the EC80 dose of each chemokine at 10 μM peptide concentration.
The J:CXCR1 cell line was generated by transfecting Jurkat cells by electroporation with PvuI-linearized plasmid D1398 and selecting with blasticidin (Sigma-Aldrich, Cat #203350, […]). […] J:CXCR1 cells were cultured in RPMI-1640 media (Gibco), supplemented with 10% FBS and 5 mM L-Glutamine with blasticidin. For J:CXCR1 migration assays, 300,000 cells/well were added to the top chamber of a 3 μm Transwell insert (Corning) in 50 μL of migration media (RPMI-1640, 0.5% FBS, 4 mM L-Glutamine, 0.05% DMSO). The bottom chamber contained 150 μL of chemokine, with or without peptide. Cells were migrated at 37° C. in 5% CO2 for 4 hours. The plate was incubated on a shaking platform for 10 minutes, 800 rpm, at 37° C., and 150 μL from the bottom of the plate transferred into a U-bottom plate containing 50 μL of migration media.

CC(C)C[C@H](NC(=O)[C@@H]1CCCN1C(=O)[C@H](C)NC(=O)[C@H](Cc1ccc(O)cc1)NC(=O)[C@H](C)NC(=O)[C@@H](NC(=O)[C@H](Cc1ccc(O)cc1)NC(=O)[C@H](CC(=O)O)NC(=O)[C@H](CC(=O)O)NC(=O)[C@H](CCC(=O)O)NC(=O)[C@@H](N)CCC(=O)O)[C@@H](C)O)C(=O)N[C@H](C(=O)N[C@@H](CS)C(=O)N[C@@H](Cc1ccc(O)cc1)C(=O)N[C@@H](Cc1ccccc1)C(=O)N[C@@H](CS)C(N)=O)[C@@H](C)O [HD2_C16, EEDDYTAYAPLTCYFC] (H-EEDDYTAYAPLTCYFC-NH2; N-terminus assumed)
chemotaxis compared with the parental HD2 peptide (CCL15): significant reduction in chemotaxis | chemotaxis compared with the parental HD2 peptide (CCL14): significant reduction in chemotaxis | chemotaxis inhibition compared with HD2, meta-analysis (CC and CXC chemokines): significant improvement over HD2

EEDDWTAYAPLTCYFT-NH2 [HD2_W5, EEDDWTAYAPLTCYFT]
chemotaxis inhibition compared with HD2, meta-analysis (CC and CXC chemokines): significant improvement over HD2

EEDDYTAYWPLTCYFT [A9W]
chemotaxis compared with the parental HD2 peptide (CCL15): significant reduction in chemotaxis | chemotaxis inhibition compared with HD2, meta-analysis (CC and CXC chemokines): significant improvement over HD2

EEDDYWAYAPLTCYFT [HD2_W6]
chemotaxis compared with the parental HD2 peptide (CCL15): significant reduction in chemotaxis | chemotaxis inhibition compared with HD2, meta-analysis (CC and CXC chemokines): significant improvement over HD2
